The record followed here is ChEMBL document CHEMBL6114960, “Discovery of First-in-Class FXR and HSD17B13 Dual Modulator for the Treatment of Metabolic Dysfunction-Associated Fatty Liver Disease” (J Med Chem, 2025).

By EC50 is commonly meant the concentration needed to bring the measured effect to its halfway point. One may read the IC50 as the concentration that gives 50% inhibition.

Assay [1] deals with T1, Bile acid receptor (Homo sapiens, UniProt Q96RI1).
T1 sequence (Q96RI1 whole entry): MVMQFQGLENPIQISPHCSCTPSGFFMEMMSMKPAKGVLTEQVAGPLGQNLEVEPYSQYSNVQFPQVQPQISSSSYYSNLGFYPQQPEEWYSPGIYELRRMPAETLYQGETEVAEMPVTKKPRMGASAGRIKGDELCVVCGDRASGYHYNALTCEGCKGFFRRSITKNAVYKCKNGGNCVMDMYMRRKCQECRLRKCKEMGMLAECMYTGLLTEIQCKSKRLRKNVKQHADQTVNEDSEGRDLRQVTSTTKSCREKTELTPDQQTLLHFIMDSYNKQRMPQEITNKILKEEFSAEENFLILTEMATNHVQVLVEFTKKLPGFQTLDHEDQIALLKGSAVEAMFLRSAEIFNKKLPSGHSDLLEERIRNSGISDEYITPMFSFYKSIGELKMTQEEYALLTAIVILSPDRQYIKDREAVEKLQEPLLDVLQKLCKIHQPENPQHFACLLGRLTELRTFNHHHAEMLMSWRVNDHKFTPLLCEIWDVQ
Kind of assay: Agonist activity at FXR-LBD (unknown origin) incubated for 3 hrs in presence of fluorescein-coactivator peptide by TR-FRET analysis. Background: In TR-FRET formats the signal depends on donor and acceptor labels being close together.

For assay [2], the target named is T1, Bile acid receptor. Kind of assay: Agonist activity at FXR (unknown origin) transfected in human HepG2 cells incubated for 24 hrs by luciferase assay. It is filed as cell-based.
For assay [3], the target named is T2, 17-beta-hydroxysteroid dehydrogenase 13 (Homo sapiens, UniProt Q7Z5P4).
T2 sequence (Q7Z5P4 whole entry): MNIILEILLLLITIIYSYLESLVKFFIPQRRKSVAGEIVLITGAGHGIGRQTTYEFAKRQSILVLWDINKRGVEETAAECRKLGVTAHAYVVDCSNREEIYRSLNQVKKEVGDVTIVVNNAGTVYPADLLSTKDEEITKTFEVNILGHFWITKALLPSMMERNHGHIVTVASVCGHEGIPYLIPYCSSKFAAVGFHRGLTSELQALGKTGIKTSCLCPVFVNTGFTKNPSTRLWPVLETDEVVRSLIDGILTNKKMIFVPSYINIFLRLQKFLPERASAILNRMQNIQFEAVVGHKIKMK
Description: Inhibition of HSD17B13 (unknown origin) using beta-estradiol and FAC-NAD+ as substrate incubated for 2 hrs by NAD(P)H-Glo detection reagent based luminescence assay

Assay [4] addresses T1, Bile acid receptor. Kind of assay: Agonist activity at FXR (unknown origin).
The next assay concerns Mus musculus. Description: Anti-MASH activity in western diet and CCl4 co-induced male C57BL/6 mouse model assessed as NAFLD activity score at 20 mg/kg, po administered with high fat diet and sugar water for 12 weeks with subsequent CCl4 administration three times a week and measured after 4 weeks of compound administration via gavage starting from 9th week (Rvb > 6). The assay is classed as functional.

On to `CC(C)NC(=O)c1ccc(-c2ccc(OCc3c(-c4c(Cl)cccc4Cl)noc3C3CC3)cc2)cc1`, for which the EC50 on Bile acid receptor [1] was 974 nM. For `Cc1cc(OCc2c(-c3c(Cl)cccc3Cl)noc2C2CC2)ccc1-c1ccc(C(=O)O)cc1`, the results for the EC50 at Bile acid receptor [1] and at Bile acid receptor [2] were 134 nM and 301 nM, respectively. For `CN(C)C(=O)c1ccc(-c2ccc(OCc3c(-c4c(Cl)cccc4Cl)noc3C3CC3)cc2)cc1`, at Bile acid receptor [1], the 50% effective concentration (EC50) stood at 482 nM. In the case of `O=C(O)c1cccc2nc(-c3ccc(OCc4c(-c5c(Cl)cccc5Cl)noc4C4CC4)cc3)cn12`, the EC50 at Bile acid receptor [1] is 121 nM; at Bile acid receptor [2] it was 186 nM. This compound also displayed an IC50 in assay [3] of 850 nM. In the case of `O=C(O)c1ccc(-c2ccc(OCc3c(-c4c(Cl)cccc4Cl)noc3C3CC3)cc2)nc1`, the results for the EC50 at Bile acid receptor [1] and at Bile acid receptor [2] were 129 nM and 329 nM, respectively.

As for `O=C(O)c1ccc(-c2ccc(OCc3c(-c4c(Cl)cccc4Cl)noc3C3CC3)c(F)c2)cc1`, the figures for the EC50 on Bile acid receptor [1] and on Bile acid receptor [2] were 143 nM and 475 nM, respectively.

As to `CN(C)C(=O)c1cccc(-c2ccc(OCc3c(-c4c(Cl)cccc4Cl)noc3C3CC3)cc2)c1`, the EC50 at Bile acid receptor [1] worked out at 209 nM; on Bile acid receptor [2], 493 nM. Consider `CC(C)c1onc(-c2ccccc2C(F)(F)F)c1COc1ccc(-c2ccc(C(=O)O)cc2)cc1`, for which the EC50 at Bile acid receptor [1] worked out at 232 nM; at Bile acid receptor [2] it was 525 nM. Turning to `O=C(O)c1ccc(-c2ccc(OCc3c(-c4c(Cl)cccc4Cl)noc3C3CC3)cc2)cc1Cl`, the EC50 came to 193 nM on Bile acid receptor [1] and 239 nM at Bile acid receptor [2].

`O=C(O)C1=CC2NC(c3ccc(OCc4c(-c5c(Cl)cccc5Cl)noc4C4CC4)cc3)=NC2C=C1` (stereo unspecified): the IC50 in assay [3] was found to be 4350 nM. In the case of `O=C(NCC1CC1)c1cccc(-c2ccc(OCc3c(-c4c(Cl)cccc4Cl)noc3C3CC3)cc2)c1`, the EC50 at Bile acid receptor [1] is more than 10000 nM. As to `CC(C)(C)NC(=O)c1cccc(-c2ccc(OCc3c(-c4c(Cl)cccc4Cl)noc3C3CC3)cc2)c1`, at Bile acid receptor [1], the EC50 is more than 10000 nM.

On to `O=C(O)c1c(F)cc(-c2ccc(OCc3c(-c4c(Cl)cccc4Cl)noc3C3CC3)cc2)cc1F`, for which, on Bile acid receptor [1], the EC50 is 531 nM. With `O=C(O)c1ccc(-c2ccc(OCc3c(-c4c(Cl)cccc4Cl)noc3C3CC3)cc2)c(C(F)(F)F)c1`, the EC50 amounted to 119 nM at Bile acid receptor [1] and 288 nM on Bile acid receptor [2]. Consider `CNC(=O)c1ccc(-c2ccc(OCc3c(-c4c(Cl)cccc4Cl)noc3C3CC3)cc2)cc1`, for which the EC50 on Bile acid receptor [1] amounted to 146 nM; on Bile acid receptor [2], 288 nM. With `O=C(O)c1ccc(-c2ccc(OCc3c(-c4c(Cl)cccc4Cl)noc3C3CC3)cc2)s1`, the EC50 on Bile acid receptor [1] was found to be 271 nM; on Bile acid receptor [2] it was 491 nM. Turning to `OCC1(c2cccc(-c3ccc(OCc4c(-c5c(Cl)cccc5Cl)noc4C4CC4)cc3)c2)CC1`, the EC50 at Bile acid receptor [1] is more than 10000 nM. For the compound `O=C(O)c1ccc(-c2ccc(OCc3c(-c4c(Cl)cccc4Cl)noc3C3CC3)cc2)c(F)c1`, the EC50 at Bile acid receptor [1] is 114 nM; at Bile acid receptor [2], 282 nM. Take `NC(=O)c1ccc(-c2ccc(OCc3c(-c4c(Cl)cccc4Cl)noc3C3CC3)cc2)cc1`: the EC50 on Bile acid receptor [1] amounted to 145 nM; at Bile acid receptor [2] it was 372 nM. As to `O=C(c1cccc(-c2ccc(OCc3c(-c4c(Cl)cccc4Cl)noc3C3CC3)cc2)c1)N1CCOCC1`, the EC50 on Bile acid receptor [1] was more than 10000 nM. Turning to `Cc1cc(OCc2c(-c3c(Cl)cccc3Cl)noc2C2CC2)cc(C)c1-c1ccc(C(=O)O)cc1`, the EC50 worked out at 85 nM on Bile acid receptor [1] and 261 nM on Bile acid receptor [2]. As to `O=C(O)c1ccc(-c2ccc(OCc3c(-c4c(Cl)cccc4Cl)noc3C3CC3)cn2)cc1`, the EC50 at Bile acid receptor [1] stood at 697 nM. Take `O=C(NC1CC1)c1cccc(-c2ccc(OCc3c(-c4c(Cl)cccc4Cl)noc3C3CC3)cc2)c1`: the EC50 at Bile acid receptor [1] turned out to be 579 nM. Consider `OCCOc1ccc(-c2ccc(OCc3c(-c4c(Cl)cccc4Cl)noc3C3CC3)cc2)cc1`, for which the EC50 at Bile acid receptor [1] was more than 10000 nM. As to `O=C(O)c1ccnc(N2CC(O)(c3ccc(OCc4c(-c5c(Cl)cccc5Cl)noc4C4CC4)cc3Cl)C2)c1` [CILOFEXOR], at Bile acid receptor [4], the EC50 came to 58 nM. `CC[C@H]1[C@@H](O)[C@@H]2[C@H](CC[C@]3(C)[C@@H]([C@H](C)CCC(=O)O)CC[C@@H]23)[C@@]2(C)CC[C@@H](O)C[C@@H]12` [OBETICHOLIC ACID]: in the assay with Mus musculus, the Activity came out at 3.5. The compound further returned an IC50 in assay [3] of more than 10000 nM.
